# Assay results taken from patent EP0630366B1, “SUBSTITUTED HETEROCYCLIC DERIVATIVES USEFUL AS PLATELET AGGREGATION INHIBITORS” (G.D. Searle & Co., priority 1991, dated 1993).
# System: platelet aggregation
# Assay: In-vitro platelet aggregation in PRP (ADP-induced)
# Assay type: cell-based, dogs
# Conditions: Canis lupus familiaris; at 10^-5; dog platelet-rich plasma, ADP-induced aggregation; read-out: Dog PRP IC50 (cell prints inhibition at a single concentration)
# Experimental: Healthy male or female dogs were fasted for 8 hours prior to drawing blood; then 30 ml whole blood was collected using a butterfly needle and 30 cc plastic syringe with 3 ml of 0.129 M buffered sodium citrate (3.8%). The syringe was rotated carefully as blood was drawn to mix the citrate. Platelet-rich plasma (PRP) was prepared by centrifugation at 975 x g for 3.17 minutes at room temperature allowing the centrifuge to coast to a stop without braking. The PRP was removed from the blood with a plastic pipette and placed in a plastic capped, 50 mL Corning conical sterile centrifuge tube which was held at room temperature. Platelet poor plasma (PPP) was prepared by centrifuging the remaining blood at 2000 x g for 15 minutes at room temperature allowing the centrifuge to coast to a stop without braking. The PRP was adjusted with PPP to a count of 2-3 x 10^8 platelets per mL. 400 uL of the PRP preparation and 50 uL of the compounds solution to be tested or saline were preincubated for 1 minute at 37°C in a BioData, Horsham, PA). 50 uL of adenosine 5' diphosphate (ADP) (50 um final concentration) was added to the cuvettes and the aggregation was monitored for 1 minute. All compounds are tested in duplicate. Results are calculated as follows: Percent of control = [(maximal OD minus initial OD of compound) divided by (maximal OD minus initial OD of control saline)] x 100. The % inhibition = 100 - (percent of control).
# The compounds tested and their median inhibitory concentrations (IC50) are recorded in Table I. IC50's (dosage at which 50% of platelet aggregation is inhibited) were calculated by linear regression of the dose response curve.
row,Compound,inhibition at 10 µM [%]
1,N=C(N)c1ccc(NC(=O)C2CCCCC2C(=O)NC(CC(=O)O)c2cccnc2)cc1 (stereo not drawn) [Example 14],0

# Same assay, conditions: Canis lupus familiaris; dog platelet-rich plasma, ADP 50 um final concentration; IC50 by linear regression of the dose response curve
row,Compound,IC50 [nM]
1,"N=C(N)c1ccc(NC(=O)CCC(=O)NC(CC(=O)O)c2cccnc2)cc1 (racemic) [Example 2, D,L-β-[[4-[[4-(aminoiminomethyl)phenyl]amino]-1,4-dioxobutyl]amino]-3-pyridinepropanoic acid]",93
2,"N=C(N)c1ccc(NC(=O)C2CC2C(=O)NC(CC(=O)O)c2cccnc2)cc1 (single isomer, unassigned; isomer 2) [Example 27]",> 10000
3,"N=C(N)c1ccc(NC(=O)CCC(=O)N[C@@H](CC(=O)O)c2cccnc2)cc1 [Example 5, βS-[[4-[[4-(aminoiminomethyl)phenyl]amino]-1,4-dioxobutyl]amino]-3-pyridinepropanoic acid]",47
4,N=C(N)c1ccc(NC(=O)CCC(=O)NC(CC(=O)O)c2ccccn2)cc1 (stereo not drawn) [Example 8],290
5,N=C(N)c1ccc(NC(=O)CCC(=O)NC(CC(=O)O)c2ccncc2)cc1 (stereo not drawn) [Example 10],160
6,"N=C(N)c1ccc(NC(=O)CCC(=O)NC(CC(=O)O)c2ccc3c(c2)OCO3)cc1 (stereo not drawn) [Example 20, β-[[4-[[4-(aminoiminomethyl)phenyl]amino]-1,4-dioxobutyl]amino]-1,3-benzodioxole-5-propanoic acid]",68
7,CCOC(=O)CC(NC(=O)CCC(=O)Nc1ccc(C(=N)N)cc1)c1cc2c(cc1[N+](=O)[O-])OCO2 (stereo not drawn) [Example 21],> 10000
8,N=C(N)c1ccc(NC(=O)CCC(=O)NC(CC(=O)O)c2cncnc2)cc1 (stereo not drawn) [Example 22],59
9,N=C(N)c1ccc(NC(=O)CCC(=O)NC(CC(=O)O)c2cc3c(cc2[N+](=O)[O-])OCO3)cc1 (stereo not drawn) [Example 34],1200

# Same assay, conditions: dog platelet-rich plasma, ADP 50 um final concentration; IC50 by linear regression of the dose response curve
row,Compound,IC50 [nM]
1,"(±) [[[4-[[4-(aminoiminomethyl)phenyl]-amino]-1,4-dioxo-(2E)-butenyl]amino]-3-pyridinepropanoic acid [Example 29]",110
2,"(±)-1[[[4-[[4-(aminoiminomethyl)phenyl]amino]-1,4-dioxo-(2Z)-butenyl]amino]-3-pyridinepropanoic acid [Example 30]",> 10000
3,"Ethyl β-[[4-[[4-(aminoiminomethyl)phenyl]amino]1,4-dioxobutyl]amino]-1,3-benzodioxole-5-propanoate (isomer 1) [Example 31]",7300
4,"Ethyl β-[[4-[[4-aminoiminomethyl) phenyl]amino]-1,4-dioxobutyl]amino]-1,3-benzodioxole-5-propanoate [Example 19]",> 10000
5,"β-[[4-[[3-(aminoiminomethyl)phenyl]amino]-1,5-dioxopentyl]amino]-3-pyridinepropanoic acid [Example 3]",> 10000
6,"β-[[4-[[4-(aminoiminomethyl)phenyl]amino]-1,4-dioxobutyl]amino]-1,3-benzodioxole-5-propanoic acid [Example 33]",6800
7,"β-[[4-[[4-(aminoiminomethyl)phenyl]amino]-1,4-dioxobutyl]amino]-2-thiophenepropanoic acid [Example 18]",120
8,"βR-[[4-[[4-(aminoiminomethyl)phenyl]amino]-1,4-dioxobutyl]amino]-3-pyridinepropanoic acid [Example 7]",4800

# System: collagen induced platelet aggregation
# Assay: Inhibition of ex vivo collagen induced platelet aggregation after administration to dogs
# Assay type: in vivo, dogs (Beagles)
# Conditions: after 24 hours, administered orally to dogs at a dose of 20 mg/kg
# Experimental: The purpose of this assay is to determine the effects of antiplatelet compounds on ex vivo collagen induced platelet aggregation when administered either intravenously or orally to dogs.
# Pretreatment (control) blood samples are drawn from either conscious or anesthetized dogs (Beagles) and centrifuged to prepare platelet rich plasma (PRP). Aggregatory response to collagen is measured in a aggregometer and used as Control. Compounds are administered, either intragasterically (either by capsule or stomach tube or intravenously). Blood samples are drawn at predetermined intervals after compound administration, PRP prepared and aggregation to collagen determined. Compound inhibition of aggregation is determined by comparing the aggregation response after compound administration to the pretreatment response. The study is continued for a maximum of 24 hours or until the platelet aggregation returns to control levels. (If aggregation is still inhibited after 7 hours, a blood sample is drawn the following morning and tested.) Duration of activity is determined by the length of time platelet aggregation is inhibited after compound administration.
row,Compound,inhibited platelet aggregation
1,"CCOC(=O)C[C@H](NC(=O)CCC(=O)Nc1ccc(C(=N)N)cc1)c1cccnc1 [Example 4, Ethyl βS-[[4-[[4-(aminoiminomethyl)phenyl]amino]-1,4-dioxobutyl]amino]-3-pyridinepropanoate]",up to 100%
2,"Ethyl-β-[[4-[[4-(aminoiminomethyl)phenyl] amino]-1,4-dioxobutyl]amino]-3-pyridinepropanoate [Example 1]",up to 100%
3,"β-[[4-[[4-(aminoiminomethyl)phenyl]amino]-1,4-dioxobutyl]amino]-2-furanpropanoic acid [Example 16]",up to 100%
